The target of data set [1] is T1, Nuclear receptor subfamily 1 group I member 2 (Homo sapiens, UniProt O75469).
T1 sequence (O75469 whole entry): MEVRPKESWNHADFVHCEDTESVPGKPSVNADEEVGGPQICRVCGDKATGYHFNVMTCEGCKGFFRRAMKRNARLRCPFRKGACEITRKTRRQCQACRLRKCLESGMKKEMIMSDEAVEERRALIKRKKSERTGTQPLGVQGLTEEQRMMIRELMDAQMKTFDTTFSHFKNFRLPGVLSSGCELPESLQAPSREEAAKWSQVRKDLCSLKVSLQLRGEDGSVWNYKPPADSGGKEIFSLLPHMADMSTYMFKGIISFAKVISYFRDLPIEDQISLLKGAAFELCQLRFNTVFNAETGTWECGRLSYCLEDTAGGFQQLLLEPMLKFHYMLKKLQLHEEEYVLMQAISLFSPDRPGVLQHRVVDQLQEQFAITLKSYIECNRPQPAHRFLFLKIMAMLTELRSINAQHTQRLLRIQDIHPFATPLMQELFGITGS
Put plainly: Agonist activity at PXR at 10 uM. Format: functional.

In data set [2] the target is T2, 11-beta-hydroxysteroid dehydrogenase type 2 (Mus musculus, UniProt P51661).
T2 sequence (P51661 whole entry): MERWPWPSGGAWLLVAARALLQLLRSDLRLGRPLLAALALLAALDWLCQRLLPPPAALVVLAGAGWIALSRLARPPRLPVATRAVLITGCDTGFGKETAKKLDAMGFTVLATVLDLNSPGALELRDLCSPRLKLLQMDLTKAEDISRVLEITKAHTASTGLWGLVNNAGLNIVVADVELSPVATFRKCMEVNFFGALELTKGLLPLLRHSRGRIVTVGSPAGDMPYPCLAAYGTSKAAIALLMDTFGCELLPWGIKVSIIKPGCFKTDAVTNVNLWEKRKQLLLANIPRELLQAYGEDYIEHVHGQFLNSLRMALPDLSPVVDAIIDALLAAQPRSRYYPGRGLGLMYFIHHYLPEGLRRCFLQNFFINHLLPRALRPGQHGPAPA
Put plainly: Inhibition of mouse 11beta-HSD2.

In data set [3] the target is 11-beta-hydroxysteroid dehydrogenase 1 (Mus musculus, UniProt P50172). Put plainly: Inhibition of mouse 11beta-HSD1 expressed in CHO-K1 cells assessed as conversion of [3H]cortisone to [3H]cortisol by scintillation counting. Format: cell-based.
Sequence of 11-beta-hydroxysteroid dehydrogenase 1 (Mus musculus, UniProt P50172) (P50172 whole entry): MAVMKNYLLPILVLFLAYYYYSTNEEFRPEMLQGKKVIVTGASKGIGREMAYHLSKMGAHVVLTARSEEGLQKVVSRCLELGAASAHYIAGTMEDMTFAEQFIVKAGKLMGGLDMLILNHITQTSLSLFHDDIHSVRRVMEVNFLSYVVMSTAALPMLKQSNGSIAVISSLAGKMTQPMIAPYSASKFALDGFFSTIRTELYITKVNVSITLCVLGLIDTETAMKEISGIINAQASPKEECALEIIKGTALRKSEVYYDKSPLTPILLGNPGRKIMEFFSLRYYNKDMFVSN
For data set [4], the system named is Mus musculus. Kind of data set: Inhibition of 11beta-HSD1 in ICR mouse assessed as conversion of [3H]cortisone to [3H]cortisol at 10 mg/kg, po after 4 hrs by scintillation counting. It counts as functional.
The test system of data set [5] is Mus musculus. Kind of data set: Inhibition of 11beta-HSD1 in ICR mouse assessed as conversion of [3H]cortisone to [3H]cortisol at 10 mg/kg, po after 16 hrs by scintillation counting. It counts as functional.
The target of data set [6] is 11-beta-hydroxysteroid dehydrogenase 1 (Homo sapiens, UniProt P28845). Kind of data set: Inhibition of human 11beta-HSD1 expressed in CHO-K1 cells assessed as conversion of [3H]cortisone to [3H]cortisol by scintillation counting. Format: cell-based.
Sequence of 11-beta-hydroxysteroid dehydrogenase 1 (Homo sapiens, UniProt P28845) (P28845 whole entry): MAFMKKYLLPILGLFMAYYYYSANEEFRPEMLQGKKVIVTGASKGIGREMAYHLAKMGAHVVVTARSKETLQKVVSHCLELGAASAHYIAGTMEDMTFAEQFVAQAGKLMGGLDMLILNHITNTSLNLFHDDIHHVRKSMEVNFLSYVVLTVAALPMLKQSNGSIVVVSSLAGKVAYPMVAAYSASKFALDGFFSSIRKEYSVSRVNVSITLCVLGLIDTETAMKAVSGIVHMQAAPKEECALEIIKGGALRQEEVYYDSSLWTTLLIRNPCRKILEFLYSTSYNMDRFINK
Data set [7] has as its target T3, 11-beta-hydroxysteroid dehydrogenase type 2 (Homo sapiens, UniProt P80365).
T3 sequence (P80365 whole entry): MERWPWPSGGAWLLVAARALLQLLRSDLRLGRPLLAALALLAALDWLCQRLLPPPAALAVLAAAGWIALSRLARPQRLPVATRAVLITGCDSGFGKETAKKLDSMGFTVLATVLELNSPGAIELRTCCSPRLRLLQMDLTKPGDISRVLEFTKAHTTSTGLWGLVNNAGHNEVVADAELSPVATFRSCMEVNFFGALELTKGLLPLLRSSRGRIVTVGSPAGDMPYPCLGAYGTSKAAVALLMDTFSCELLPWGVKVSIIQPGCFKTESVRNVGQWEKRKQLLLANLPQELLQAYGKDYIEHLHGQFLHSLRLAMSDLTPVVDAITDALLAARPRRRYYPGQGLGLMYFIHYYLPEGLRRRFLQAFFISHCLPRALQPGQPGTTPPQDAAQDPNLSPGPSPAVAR
Kind of data set: Inhibition of human 11beta-HSD2.

Data set [8] addresses T1, Nuclear receptor subfamily 1 group I member 2. Kind of data set: Agonist activity at PXR. It counts as functional.

Take `Cn1c(-c2ccc(C(=O)O)cc2)nnc1C1(c2ccc(Cl)cc2)CCC1`: the Activity in data set [1] is -1%. The half-inhibitory concentration (IC50) (commonly the concentration that gives 50% inhibition) is greater than 4 µM in data set [2], 0.087 µM in data set [3], 0.076 µM in data set [6] and greater than 4 µM in data set [7]. In addition, the inhibition in vivo (in general, the drop in the measured response relative to a control, in per cent) at 10 mg/kg was 10% in data set [4] and -8% in data set [5]. The EC50 (as a rule, the concentration needed to bring the measured effect to its halfway point) in data set [8] was greater than 30 µM.
Consider `Cn1c(-c2ccc(C(N)=O)cc2)nnc1C1(c2ccc(Cl)cc2)CCC1`, for which, in data set [1], the Activity is 21%. Further, the IC50 in data set [2] was greater than 4 µM; in data set [3], 0.026 µM; in data set [6], 0.001 µM; in data set [7], greater than 4 µM. Also, the inhibition in vivo at 10 mg/kg in data set [4] was 35%; in data set [5], 4%. This compound registered an EC50 in data set [8] greater than 30 µM.
As to `CCNC(=O)c1ccc(-c2nnc(C3(c4ccc(Cl)cc4)CCC3)n2C)cc1`, the Activity in data set [1] was found to be 18%. The IC50 in data set [2] is greater than 4 µM; in data set [3] it was 0.0078 µM; in data set [6], 0.069 µM; in data set [7], greater than 4 µM. Also, the inhibition in vivo at 10 mg/kg worked out at 71% in data set [4] and 0% in data set [5]. Moreover, in data set [8], the concentration for a half-maximal effect (EC50) was greater than 30 µM.
Consider `Cn1c(-c2ccc(C(=O)NC(C)(C)C)cc2)nnc1C1(c2ccc(Cl)cc2)CCC1`, for which the Activity in data set [1] is 11%. In addition, the 50% inhibitory concentration (IC50) in data set [2] was greater than 4 µM; in data set [3], 0.003 µM; in data set [6], 0.54 µM; in data set [7], greater than 4 µM. Also, the inhibition in vivo at 10 mg/kg in data set [4] turned out to be 71%; in data set [5], 5%. In addition, in data set [8], the EC50 is greater than 30 µM.
Take `Cn1c(-c2ccc(C(=O)NC3CC3)cc2)nnc1C1(c2ccc(Cl)cc2)CCC1`: in data set [1], the Activity is listed as 14%. Also, the IC50 in data set [2] was greater than 4 µM; in data set [3], 0.011 µM; in data set [6], 0.3 µM; in data set [7], greater than 4 µM. This compound yielded an EC50 in data set [8] greater than 30 µM.
As for `Cn1c(-c2ccc(C(=O)NC3CCC3)cc2)nnc1C1(c2ccc(Cl)cc2)CCC1`, the Activity in data set [1] is recorded as 4%. The IC50 is greater than 4 µM in data set [2], 0.0066 µM in data set [3], 0.47 µM in data set [6] and greater than 4 µM in data set [7]. In addition, the concentration for a half-maximal effect (EC50) in data set [8] was greater than 30 µM.
Turning to `Cn1c(-c2ccc(C(=O)N3CCC3)cc2)nnc1C1(c2ccc(Cl)cc2)CCC1`, the Activity in data set [1] turned out to be 10%. Further, the half-inhibitory concentration (IC50) in data set [2] was greater than 4 µM; in data set [3] it was 0.062 µM; in data set [6] it was 0.25 µM; in data set [7] it was greater than 4 µM. The compound further had an EC50 in data set [8] greater than 30 µM.
Take `Cn1c(-c2ccc(C(=O)N3CCCC3)cc2)nnc1C1(c2ccc(Cl)cc2)CCC1`: the Activity in data set [1] is recorded as 10%. Also, the IC50 was greater than 4 µM in data set [2], 0.13 µM in data set [3], 0.65 µM in data set [6] and greater than 4 µM in data set [7]. The inhibition in vivo at 10 mg/kg in data set [4] stood at 24%; in data set [5] it was 0%. The compound further had an EC50 in data set [8] greater than 30 µM.
Consider `Cn1c(-c2ccc(C(=O)N3CCOCC3)cc2)nnc1C1(c2ccc(Cl)cc2)CCC1`, for which the Activity in data set [1] came out at 16%. In addition, the IC50 in data set [2] was greater than 4 µM; in data set [3], 0.2 µM; in data set [6], 0.56 µM; in data set [7], greater than 4 µM. In addition, the EC50 in data set [8] was greater than 30 µM.
As for `Cn1c(-c2ccc(C(=O)O)cc2Cl)nnc1C1(c2ccc(Cl)cc2)CCC1`, the Activity in data set [1] is reported as 28%. Besides, the IC50 is greater than 4 µM in data set [2], 0.019 µM in data set [3], 0.011 µM in data set [6] and greater than 4 µM in data set [7]. Besides, the figures for the inhibition in vivo at 10 mg/kg in data set [4] and in data set [5] were 90% and 38%, respectively. This compound yielded an EC50 in data set [8] of 18 µM.
Turning to `Cn1c(-c2ccc(C(N)=O)cc2Cl)nnc1C1(c2ccc(Cl)cc2)CCC1`, the Activity in data set [1] came out at 16%. The IC50 in data set [2] was greater than 4 µM; in data set [3], 0.001 µM; in data set [6], less than 0.001 µM; in data set [7], greater than 4 µM. For the same compound, the inhibition in vivo at 10 mg/kg in data set [4] was determined as 57%; in data set [5], 12%. Also, the concentration for a half-maximal effect (EC50) in data set [8] was greater than 30 µM.
On to `Cn1c(-c2ccc(N)cc2)nnc1C1(c2ccc(Cl)cc2)CCC1`, for which the Activity in data set [1] was determined as 22%. Further, the values for the IC50 in data set [3] and in data set [7] were 0.015 µM and 3.1 µM, respectively. Moreover, the inhibition in vivo at 10 mg/kg in data set [4] was 77%; in data set [5], 12%. The compound further registered a half-maximal effective concentration (EC50) in data set [8] greater than 30 µM.
`CC(=O)Nc1ccc(-c2nnc(C3(c4ccc(Cl)cc4)CCC3)n2C)cc1`: the Activity in data set [1] turned out to be 21%. Besides, the IC50 was greater than 4 µM in data set [2], 0.0091 µM in data set [3], 0.0058 µM in data set [6] and greater than 4 µM in data set [7]. The inhibition in vivo at 10 mg/kg turned out to be 59% in data set [4] and 10% in data set [5]. Further, the EC50 in data set [8] was greater than 30 µM.
Regarding `Cn1c(-c2ccc(NC(=O)c3cnccn3)cc2)nnc1C1(c2ccc(Cl)cc2)CCC1`, the Activity in data set [1] is -2.5%. The IC50 was greater than 4 µM in data set [2], 0.011 µM in data set [3], 0.069 µM in data set [6] and greater than 4 µM in data set [7]. Also, the inhibition in vivo at 10 mg/kg in data set [4] is 67%; in data set [5], 5%. In data set [8], this compound came in with an EC50 greater than 30 µM.
Consider `Cn1c(-c2ccc(N)cc2Cl)nnc1C1(c2ccc(Cl)cc2)CCC1`, for which, in data set [1], the Activity amounted to 35%. Also, the IC50 in data set [3] was less than 0.001 µM; in data set [7] it was 2.3 µM. The inhibition in vivo at 10 mg/kg came out at 90% in data set [4] and 38% in data set [5]. Besides, the EC50 in data set [8] was greater than 30 µM.
Consider `Cn1c(-c2ccc(-c3cnc(O)nc3)cc2)nnc1C1(c2ccc(Cl)cc2)CCC1`, for which the Activity in data set [1] was found to be 9%. The IC50 in data set [2] was greater than 4 µM; in data set [3], 0.0029 µM; in data set [6], 0.0012 µM; in data set [7], greater than 4 µM. Moreover, in data set [8], the EC50 is greater than 30 µM.
Turning to `Cn1c(-c2ccc(-c3ccc(N)nn3)cc2)nnc1C1(c2ccc(Cl)cc2)CCC1`, in data set [1], the Activity was determined as 12%. For the same compound, the IC50 was greater than 4 µM in data set [2], 0.0011 µM in data set [3], 0.0048 µM in data set [6] and greater than 4 µM in data set [7]. The EC50 in data set [8] is greater than 30 µM.
Regarding `Cn1c(-c2ccc(-c3cnoc3)cc2)nnc1C1(c2ccc(Cl)cc2)CCC1`, the Activity in data set [1] is on record as 29%. For the same compound, the concentration for half-maximal inhibition (IC50) in data set [2] was greater than 4 µM; in data set [3], 0.0041 µM; in data set [6], 0.0011 µM; in data set [7], greater than 4 µM. This compound also yielded an EC50 in data set [8] of 23 µM.
As to `Cn1c(-c2ccc(-c3ccsc3)cc2)nnc1C1(c2ccc(Cl)cc2)CCC1`, in data set [1], the Activity was found to be 78%. The figures for the IC50 in data set [3] and in data set [7] were less than 0.001 µM and 1.3 µM, respectively. In addition, the inhibition in vivo at 10 mg/kg is 81% in data set [4] and 33% in data set [5]. Also, the EC50 in data set [8] was 3 µM.
As for `Cn1c(-c2ccc(-c3cnccn3)cc2C(N)=O)nnc1C1(c2ccc(Cl)cc2)CCC1`, in data set [1], the Activity is listed as 4%. Moreover, the IC50 was greater than 4 µM in data set [2], 0.068 µM in data set [3], 0.12 µM in data set [6] and greater than 4 µM in data set [7]. This compound gave a half-maximal effective concentration (EC50) in data set [8] greater than 30 µM.
Consider `Clc1ccc(C2(c3nnc4n3CCCCCC4)CCC2)cc1`, for which, in data set [1], the Activity is 100%. Also, the EC50 in data set [8] stood at 1.6 µM.
Turning to `Cn1c(-c2ccc(-c3cccnc3)cc2Cl)nnc1C1(c2ccc(Cl)cc2)CCC1`, the Activity in data set [1] amounted to 35%. Moreover, the IC50 in data set [7] is greater than 4 µM.
With `Cn1c(-c2ccc(-c3ccccc3)cc2)nnc1C1(c2ccc(Cl)cc2)CCC1`, in data set [1], the Activity worked out at 90%. In data set [8], this compound had an EC50 of 1.7 µM.

Source of the values: ChEMBL document CHEMBL1759971, “Substituted phenyl triazoles as selective inhibitors of 11β-Hydroxysteroid Dehydrogenase Type 1” (Bioorg Med Chem Lett, 2011).
